pIC50: −log10 of the molar value. Read-outs that look alike come from different tables or passages of the source.
Experiments:
hNAMPT protein = hNAMPT protein (Homo sapiens (Human), UniProt P43490); test: NAMPT enzyme assay (TR-FRET/HTRF with BodiPY ligand); type: binding; settings: for inhibition at 1 µM: read-out: Percent Inhibition; for pIC50: NAMPT inhibition, IC50 range class
Method in brief: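 Ligand displacement by TR-FRET: BodiPY emission (520 nm) over terbium (486 nm) after 320 nm excitation. Compound, BodiPY ligand, hNAMPT and anti-6His-Tb incubated 1 h at room temperature, dark, at pH 7.5. Percent inhibition computed versus DMSO; concentration-response curves fitted for IC50.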

PC3 cells = test: PC3 growth inhibition (Cell-titer glo, 72 hours); type: cell-based; settings: Homo sapiens, PC-3, 72 h, read-out: Percent Viability, PC3 cells, compound concentration 1.667 μM, 72 hours
Method in brief: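 After 72 h compound treatment in AIM serum-free medium (37 °C, 5% CO2), viability of overnight-plated PC3 cells (8×10^4 cells/ml, RPMI1640-maintained) is read by CellTiter-Glo luminescence versus DMSO. Curves give GI50, LD50 or single-concentration % remaining viability.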

[1] = NAMPT inhibition at compound concentration 1 μM

hNAMPT protein, sequence (P43490 whole entry): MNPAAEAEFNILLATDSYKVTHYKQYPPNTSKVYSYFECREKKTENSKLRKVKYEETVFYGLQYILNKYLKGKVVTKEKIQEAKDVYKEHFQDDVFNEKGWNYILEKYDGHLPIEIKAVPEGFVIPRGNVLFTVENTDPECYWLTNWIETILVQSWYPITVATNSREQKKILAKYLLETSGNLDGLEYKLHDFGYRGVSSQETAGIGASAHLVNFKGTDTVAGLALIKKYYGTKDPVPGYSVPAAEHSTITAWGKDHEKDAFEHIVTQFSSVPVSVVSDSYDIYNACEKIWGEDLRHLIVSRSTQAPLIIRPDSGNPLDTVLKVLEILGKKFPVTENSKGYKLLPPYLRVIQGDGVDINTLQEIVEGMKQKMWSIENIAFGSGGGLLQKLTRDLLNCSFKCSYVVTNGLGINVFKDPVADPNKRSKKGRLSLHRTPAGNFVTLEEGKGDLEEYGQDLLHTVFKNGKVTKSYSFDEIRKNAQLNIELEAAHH

Row | Structure (SMILES) | inhibition at 1 µM (hNAMPT protein; [1]) | pIC50 (hNAMPT protein) | viability at 1.667 µM (PC3 cells) | inhibition at 1 µM (hNAMPT protein)
1 | CCOc1cc(-c2cncnc2)nc2cc(C(=O)NCCCc3nnc[nH]3)ccc12 [Compound I-208, 4-ethoxy-2-(pyrimidin-5-yl)-N-[3-(4H-1,2,4-triazol-3-yl)propyl]quinoline-7-carboxamide] | 86% | < 7.00 | 2% | –
2 | CCCc1nc(-c2ccc(Cl)cc2)nc2cc(C(=O)N[C@H]3C[C@@H](c4ncc[nH]4)C3)ccc12 [Compound I-3, 2-(4-Chlorophenyl)-N-[cis-3-(1H-imidazol-2-yl)cyclobutyl]-4-propyl-quinazoline-7-carboxamide] | 94% | 7.30 to 8.00 | 2% | –
3 | CCOc1cc(-c2cccnc2OC)nc2cc(C(=O)NCCCc3cnn[nH]3)ccc12 [Compound I-105, 4-ethoxy-2-(2-methoxypyridin-3-yl)-N-[3-(1H-1,2,3-triazol-5-yl)propyl]quinoline-7-carboxamide] | 100% | 7.30 to 8.00 | 2% | –
4 | CCOc1nc(-c2ccc(F)cc2)nc2cc(C(=O)NCCCc3cncnc3)ccc12 [Compound I-19, 4-ethoxy-2-(4-fluorophenyl)-N-[3-(pyrimidin-5-yl)propyl]quinazoline-7-carboxamide] | > 99% | > 8.00 | 1% | –
5 | CCOc1cc(-c2ccc(F)cc2)nc2cc(C(=O)NCCCc3nccs3)ccc12 [Compound I-44, 4-ethoxy-2-(4-fluorophenyl)-N-[3-(1,3-thiazol-2-yl)propyl]quinoline-7-carboxamide] | 97% | > 8.00 | 58% | –
6 | CCOc1cc(-c2cccnc2OC)nc2cc(C(=O)NCCc3c[nH]nc3C)ccc12 [Compound I-144, 4-ethoxy-2-(2-methoxypyridin-3-yl)-N-[2-(3-methyl-1H-pyrazol-4-yl)ethyl]quinoline-7-carboxamide] | 94% | 7.30 to 8.00 | 2% | –
7 | CCOc1cc(-c2ccc(F)cc2)nc2cc(C(=O)NCCCc3nnc[nH]3)ccc12 [Compound I-5, 4-ethoxy-2-(4-fluorophenyl)-N-[3-(4H-1,2,4-triazol-3-yl)propyl]quinoline-7-carboxamide] | 100% | > 8.00 | 1% | –
8 | CCOc1cc(-c2ccc(OC)nc2)nc2cc(C(=O)NCCCc3nnc[nH]3)ccc12 [Compound I-101, 4-ethoxy-2-(6-methoxypyridin-3-yl)-N-[3-(4H-1,2,4-triazol-3-yl)propyl]quinoline-7-carboxamide] | 96% | 7.30 to 8.00 | 2% | –
9 | CCOc1cc(-c2cncc(OC)c2)nc2cc(C(=O)NCCCc3nnc[nH]3)ccc12 [Compound I-210, 4-ethoxy-2-(5-methoxypyridin-3-yl)-N-[3-(4H-1,2,4-triazol-3-yl)propyl]quinoline-7-carboxamide] | 94% | 7.30 to 8.00 | 1% | –
10 | CCOc1cc(-c2ccncc2OC)nc2cc(C(=O)NCCCc3nnc[nH]3)ccc12 [Compound I-139, 4-ethoxy-2-(3-methoxypyridin-4-yl)-N-[3-(4H-1,2,4-triazol-3-yl)propyl]quinoline-7-carboxamide] | 99% | 7.30 to 8.00 | 2% | –
11 | CCOc1cc(-c2ccc(Cl)cc2)nc2cc(C(=O)NCCCc3ncc[nH]3)ccc12 [Compound I-13, 2-(4-chlorophenyl)-4-ethoxy-N-[3-(1H-imidazol-2-yl)propyl]quinoline-7-carboxamide] | – | > 8.00 | 0% | > 99%
12 | COCCOc1cc(-c2ccc(F)cc2)nc2cc(C(=O)NCC(F)(F)Cc3nnc[nH]3)ccc12 [Compound I-81, N-[2,2-difluoro-3-(4H-1,2,4-triazol-3-yl)propyl]-2-(4-fluorophenyl)-4-(2-methoxyethoxy)quinoline-7-carboxamide] | 67% | < 7.00 | 2% | –
13 | CCOc1cc(-c2ccc(C)nc2)nc2cc(C(=O)NCCc3[nH]nnc3C)ccc12 [Compound I-77, 4-ethoxy-2-(6-methylpyridin-3-yl)-N-[2-(4-methyl-1H-1,2,3-triazol-5-yl)ethyl]quinoline-7-carboxamide] | 97% | 7.30 to 8.00 | 1% | –
14 | CCOc1cc(-c2cc(F)ccc2OC)nc2cc(C(=O)NCCCc3nnc[nH]3)ccc12 [Compound I-199, 4-ethoxy-2-(5-fluoro-2-methoxyphenyl)-N-[3-(4H-1,2,4-triazol-3-yl)propyl]quinoline-7-carboxamide] | 100% | 7.30 to 8.00 | 2% | –
15 | CCOc1c(F)c(-c2ccc(F)cc2)nc2cc(C(=O)NCCCc3cnn[nH]3)ccc12 [Compound I-73, 4-ethoxy-3-fluoro-2-(4-fluorophenyl)-N-[3-(1H-1,2,3-triazol-4-yl)propyl]quinoline-7-carboxamide] | 100% | > 8.00 | 1% | –
16 | CCOc1cc(-c2ccc(F)cc2)nc2cc(C(=O)NCCCc3ccc(C)nc3)ccc12 [Compound I-227, 4-ethoxy-2-(4-fluorophenyl)-N-[3-(6-methylpyridin-3-yl)propyl]quinoline-7-carboxamide] | 100% | > 8.00 | 6% | –
17 | CCOc1cc(-c2ccc(F)cc2)nc2cc(C(=O)NCCc3c[nH]nc3C)ccc12 [Compound I-132, 4-ethoxy-2-(4-fluorophenyl)-N-[2-(3-methyl-1H-pyrazol-4-yl)ethyl]quinoline-7-carboxamide] | > 99% | > 8.00 | 3% | –
18 | COCCOc1cc(-c2ccnc(OC)c2)nc2cc(C(=O)NCc3ccn4ncnc4c3)ccc12 [Compound I-67] | 85% | – | 3% | –
19 | CCOc1cc(-c2ccc(F)cc2)nc2cc(C(=O)NCCc3nn[nH]n3)ccc12 [Compound I-221, 4-ethoxy-2-(4-fluorophenyl)-N-[2-(2H-tetrazol-5-yl)ethyl]quinoline-7-carboxamide] | 53% | < 7.00 | 89% | –
20 | CCOc1cc(-c2ccc(F)cc2OC)nc2cc(C(=O)NCCc3cnn[nH]3)ccc12 [Compound I-108, 4-ethoxy-2-(4-fluoro-2-methoxyphenyl)-N-[2-(1H-1,2,3-triazol-5-yl)ethyl]quinoline-7-carboxamide] | 99% | 7.30 to 8.00 | 3% | –
21 | CCOc1cc(-c2ccc(F)cc2OC)nc2cc(C(=O)NCCCc3[nH]nnc3C)ccc12 [Compound I-106, 4-ethoxy-2-(4-fluoro-2-methoxyphenyl)-N-[3-(4-methyl-1H-1,2,3-triazol-5-yl)propyl]quinoline-7-carboxamide] | 100% | 7.30 to 8.00 | 2% | –
22 | CCOc1nc(-c2ccc(F)cc2)nc2cc(C(=O)NCC(C)Cc3ncc[nH]3)ccc12 (centres unmarked) [Compound I-18, 4-ethoxy-2-(4-fluorophenyl)-N-[3-(1H-imidazol-2-yl)-2-methylpropyl]quinazoline-7-carboxamide] | 99% | 7.30 to 8.00 | 0% | –
23 | CCOc1cc(-c2ccc(C)s2)nc2cc(C(=O)NCCCc3nnc[nH]3)ccc12 [Compound I-223, 4-ethoxy-2-(5-methyl-2-thienyl)-N-[3-(4H-1,2,4-triazol-3-yl)propyl]quinoline-7-carboxamide] | > 99% | 7.30 to 8.00 | 3% | –
24 | CCOc1cc(-c2ccnc(C)c2)nc2cc(C(=O)NCCCc3[nH]nnc3C)ccc12 [Compound I-75, 4-ethoxy-2-(2-methylpyridin-4-yl)-N-[3-(4-methyl-1H-1,2,3-triazol-5-yl)propyl]quinoline-7-carboxamide] | 94% | 7.30 to 8.00 | 1% | –
25 | CCOc1cc(-c2cccc(C(F)(F)F)c2)nc2cc(C(=O)NCCCc3nnc[nH]3)ccc12 [Compound I-215, 4-ethoxy-N-[3-(4H-1,2,4-triazol-3-yl)propyl]-2-[3-(trifluoromethyl)phenyl]quinoline-7-carboxamide] | 93% | 7.00 to 7.30 | 1% | –
26 | CCCc1nc(-c2ccc(Cl)s2)nc2cc(C(=O)NCCCc3ncc[nH]3)ccc12 [Compound I-24, 2-(5-chloro-2-thienyl)-N-[3-(1H-imidazol-2-yl)propyl]-4-propylquinazoline-7-carboxamide] | > 99% | > 8.00 | 1% | –
27 | CCOc1cc(-c2ccc(OC)nc2)nc2cc(C(=O)NCCc3nc[nH]n3)ccc12 [Compound I-186, 4-ethoxy-2-(6-methoxypyridin-3-yl)-N-[2-(1H-1,2,4-triazol-3-yl)ethyl]quinoline-7-carboxamide] | 99% | 7.30 to 8.00 | 4% | –
28 | CCOc1cc(-c2ccnc(C)c2)nc2cc(C(=O)NCCCc3cnn[nH]3)ccc12 [Compound I-117, 4-ethoxy-2-(2-methylpyridin-4-yl)-N-[3-(1H-1,2,3-triazol-5-yl)propyl]quinoline-7-carboxamide] | 100% | > 8.00 | 2% | –
29 | CCOc1nc(-c2ccc(Cl)s2)nc2cc(C(=O)NCCCc3ncc[nH]3)ccc12 [Compound I-35, 2-(5-chloro-2-thienyl)-4-ethoxy-N-[3-(1H-imidazol-2-yl)propyl]quinazoline-7-carboxamide] | > 99% | > 8.00 | 1% | –

From patent publication US10323018B2 (Millennium Pharmaceuticals, Inc., priority 2015, dated 2019)
